Results reported in patent publication EP2181708A1, “Use of Valproate for reducing CHOP levels, particularly in a mammal having SCI” (Universitat Autonoma de Barcelona, priority 2008, dated 2010).

Tests used:
CHOP [1] = assay: Western blot of CHOP in spinal cord after contusion SCI; format: in vivo, Sprague-Dawley rats
Description: (§1) Adult females Sprague-Dawley rats aged 11 weeks (220-250 g) were anesthetized with pentobarbital (40 mg/kg i.p.). When unresponsive, the vertebral column was exposed and a laminectomy carried out at T8-T9 levels. Rostral T7 and caudal T10 vertebral bodies were clamped with Adson stabilizing forceps, and carefully adjusted to level the spinal cord in the horizontal plane. A contusion injury was performed using the Infinite Horizon impactor device (Precision Scientific Instruments, Lexington, KY). The stainless steel impounder tip was placed at 3-4 mm above the exposed spinal cord, and then a fast impact produced applying forces of 150 or 250 kilodynes (KDyn) to the exposed spinal cord. The wound was sutured with 5-0 silk thread in the muscular plane and the skin was closed with small clips and disinfected with povidone iodine solution. Sham-operated animals received the same surgical procedure but sustained no impact injury; the spinal cord was left exposed for 5 min. The animals were maintained in a warm environment until full recovery, and received preventive antibiotic (amoxicyline) and analgesic (buprenorphine) treatment. All animals were kept under standard conditions of light and temperature and fed with food and water ad libitum. The procedures involving animals were approved by the Ethics Committee of our institution, and followed the European Communities Council Directive 86/609/EEC.
VPA was intraperitoneally administered at an initial dose of 150 mg/kg by 3 h after surgery, and then a dose of 300 mg/Kg either every 24 h or every 12 h during the first week post-surgery, following by a dose of 300 mg/Kg every 24 h for the next two weeks. Groups of rats subjected to SCI or sham operation received VPA or saline injections following the same regime. […]
(§2) Rats were re-anesthetised and decapitated at 3 dpo for sample preparation. […] After clearance, protein concentration was measured by the BCA method assay (BCA Protein Assay kit, Pierce). […]

[2] = system: acetylated histone-3 (acetyl-H3); assay: Western blot of acetylated histone-3 in spinal cord after contusion SCI; format: in vivo, Sprague-Dawley rats; settings: 250 Kdyn contusion, VPA every 12 h, vs SCI without VPA
Description: as §1, with “All animals were kept under standard conditions of light and temperature and fed with food and water ad libitum. The procedures involving animals were approved by the Ethics Committee of our institution, and followed the European Communities Council Directive 86/609/EEC.” left out
as §2

ATF4 = assay: Western blot of ATF4 in spinal cord after contusion SCI; format: in vivo, Sprague-Dawley rats; settings: VPA-treated injured spinal cords compared with vehicle-treated ones
Description: as §1, with “The animals were maintained in a warm environment until full recovery, and received preventive antibiotic (amoxicyline) and analgesic (buprenorphine) treatment. All animals were kept under standard conditions of light and temperature and fed with food and water ad libitum. The procedures involving animals were approved by the Ethics Committee of our institution, and followed the European Communities Council Directive 86/609/EEC.” left out
Rats were re-anesthetised and decapitated at 3 dpo for sample preparation. […] After clearance, protein concentration was measured by the BCA method assay (BCA Protein Assay kit, Pierce). […] The membrane was visualized by enhanced chemiluminiscence (ECL) method and the images analyzed with Gene Snap and Gene Tools software, and Gene Genome apparatus (Syngene). […]

CHOP [3] = assay: Tunicamycin-induced ER stress in primary fibroblasts, Western blot of CHOP; format: cell-based, rat; settings: primary fibroblast cells, 3 µg/ml tunicamycin, valproate
Description: (§3) Primary fibroblasts obtained from rat sciatic nerve and HEK cell line were cultured in Dulbecco's modified Eagle's/F-12 medium supplemented with 10% fetal calf serum (Gibco). Fibroblasts were treated with 3 µg/mL of tunicamycin (Sigma) for 4 h and harvested in RIPA buffer for protein extraction.
(§4) We have recently reported that SCI triggers an unbalanced UPR characterized by unchanged levels of BiP/Grp78 levels but progressive accumulation of the pro-apoptotic protein CHOP, with maximal CHOP levels found at 3 days post-injury in the weight-drop contusion model (Penas et al, 2007). In this study, we used a contusion model using an impactor device to specifically control the force (either 150 KDyn or 250 KDyn) to be apply on the T8 laminectomized spinal cord segment. We analyzed the spinal cord 8 mm-length segment that includes the lesion epicenter from sham-operated animals and from VPA treated or vehicle treated SCI animals at 3 days after operation. […] Thus, we increased the amount of VPA administered to 300 mg/kg every 12 h, as reported previously for a brain stroke rat model (Kim et al, 2007), and analyzed the effect using two different contusion forces of 150 and 250 KDyn. We observed that the levels of CHOP were directly proportional to the severity of the lesion; the more severe, the higher the level. […]

CHOP [4] = assay: Tunicamycin-induced ER stress in HEK cell line, Western blot of CHOP; format: cell-based; settings: 3 µg/ml tunicamycin, valproate
Description: as §3, §4

## CCCC(CCC)C(=O)O [VPA, 2-propylpentanoic acid]
CHOP [1]; VPA 300 mg/kg every 12 h i.p., contusion 150 and 250 KDyn, three days post-injury
  CHOP levels: significantly reduced
CHOP [1]; VPA 300 mg/kg every 12 h i.p., three days post-injury
  CHOP level reduction, 250 KDyn versus 150 KDyn contusion: more pronounced
CHOP [1]; VPA 300mg/kg once per day i.p., vs saline, 3 days post-injury
  CHOP levels: did not produce changes
[2]
  levels of acetylated H3: further increased
ATF4
  levels of ATF4: significantly higher levels
CHOP [3]
  CHOP accumulation promoted by tunicamycin: can be attenuated
CHOP [4]
  CHOP accumulation promoted by tunicamycin: can be attenuated
